# Assay results from PubChem BioAssay (NCI).
#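 Abbreviation: GI50, concentration required for 50% inhibition of growth. At the TGI there is no net growth.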
# Tests used:
# Test in all cases: NCI tumour cell line growth inhibition, 384-well format
# [1] = system: SN12C renal
# [2] = system: UACC-62 melanoma
# [3] = system: MDA-MB-435 melanoma
# [4] = system: ACHN renal
# [5] = system: SR leukemia
# [6] = system: OVCAR-8 ovarian
# [7] = system: U251 glioblastoma
# [8] = system: HCT-116 colon
# [9] = system: A498 renal
# [10] = system: BT-549 breast
# [11] = system: HCC-2998 colon
# [12] = system: HL-60(TB) leukemia
# [13] = system: HOP-62 NSCLC
# [14] = system: CCRF-CEM leukemia
# [15] = system: OVCAR-4 ovarian
# [16] = system: SW-620 colon
# [17] = system: NCI-H460 NSCLC
# [18] = system: MOLT-4 leukemia
# [19] = system: HOP-92 NSCLC
# [20] = system: K-562 leukemia
# [21] = system: SF-295 CNS
# [22] = system: SK-MEL-5 melanoma
# [23] = system: OVCAR-3 ovarian
# [24] = system: LOX IMVI melanoma
# [25] = system: IGROV1 ovarian
# [26] = system: SK-MEL-2 melanoma
# [27] = system: DU-145 prostate
# [28] = system: NCI-H23 lung
# [29] = system: 786-0 renal
# [30] = system: RXF 393 renal
# [31] = system: TK-10 renal
# [32] = system: SF-268 CNS
# [33] = system: CAKI-1 renal
# [34] = system: NCI-H226 lung
# [35] = system: SNB-75 CNS
# [36] = system: SNB-19 CNS
# [37] = system: A549 NSCLC
# [38] = system: NCI/ADR-RES ovarian
# [39] = system: HT29 colon
# [40] = system: RPMI-8226 leukemia
# [41] = system: PC-3 prostate
# [42] = system: T-47D breast
# [43] = system: NCI-H522 lung
# [44] = system: MDA-MB-468 breast
# [45] = system: SK-MEL-28 melanoma
# [46] = system: OVCAR-5 ovarian
# [47] = system: EKVX NSCLC
# [48] = system: NCI-H322M lung
# [49] = system: HCT-15 colon
# [50] = system: MCF7 breast
# [51] = system: MALME-3M melanoma
# [52] = system: COLO 205 colon
# [53] = system: UACC-257 melanoma
# [54] = system: M14 melanoma
# [55] = system: SF-539 CNS
# [56] = system: MDA-MB-231 breast
# [57] = system: SK-OV-3 ovarian
# [58] = system: KM12 colon
# [59] = system: HS 578T breast
smiles,measurement,setting,value
Nc1ccn([C@@H]2C(F)=C(CO)[C@@H](O)[C@H]2O)c(=O)n1,GI50,[1],0.5 µM
same,TGI,[1],4.9 µM
same,GI50,[2],3.87 µM
same,TGI,[2],> 100 µM
same,GI50,[3],0.967 µM
same,TGI,[3],> 100 µM
same,GI50,[4],0.923 µM
same,TGI,[4],> 73.1 µM
same,GI50,[5],0.183 µM
same,TGI,[5],0.344 µM
same,GI50,[6],0.704 µM
same,TGI,[6],> 23.9 µM
same,GI50,[7],2.78 µM
same,TGI,[7],> 100 µM
same,GI50,[8],0.409 µM
same,TGI,[8],21.4 µM
same,GI50,[9],1.51 µM
same,TGI,[9],13.6 µM
same,GI50,[10],25.4 µM
same,TGI,[10],> 100 µM
same,GI50,[11],1.71 µM
same,TGI,[11],> 100 µM
same,GI50,[12],0.374 µM
same,TGI,[12],0.979 µM
same,GI50,[13],1.26 µM
same,TGI,[13],31.5 µM
same,GI50,[14],0.825 µM
same,TGI,[14],2.59 µM
same,GI50,[15],23.5 µM
same,TGI,[15],> 100 µM
same,GI50,[16],0.893 µM
same,TGI,[16],> 50.7 µM
same,GI50,[17],0.361 µM
same,TGI,[17],5.46 µM
same,GI50,[18],0.182 µM
same,TGI,[18],0.338 µM
same,GI50,[19],0.745 µM
same,TGI,[19],5.65 µM
same,GI50,[20],0.474 µM
same,TGI,[20],> 100 µM
same,GI50,[21],2.84 µM
same,TGI,[21],> 92.8 µM
same,GI50,[22],7.7 µM
same,TGI,[22],68.5 µM
same,GI50,[23],4.47 µM
same,TGI,[23],> 100 µM
same,GI50,[24],0.791 µM
same,TGI,[24],12 µM
same,GI50,[25],3.95 µM
same,TGI,[25],> 100 µM
same,GI50,[26],19.8 µM
same,TGI,[26],> 100 µM
same,GI50,[27],0.396 µM
same,TGI,[27],1.81 µM
same,GI50,[28],3.07 µM
same,TGI,[28],13.1 µM
same,GI50,[29],1.09 µM
same,TGI,[29],> 100 µM
same,GI50,[30],2.34 µM
same,TGI,[30],> 72.1 µM
same,GI50,[31],0.689 µM
same,TGI,[31],> 100 µM
same,GI50,[32],2.7 µM
same,TGI,[32],> 100 µM
same,GI50,[33],0.383 µM
same,GI50,[34],13.5 µM
same,TGI,[34],> 100 µM
same,GI50,[35],12.3 µM
same,TGI,[35],> 100 µM
same,GI50,[36],3.37 µM
same,TGI,[36],> 100 µM
same,GI50,[37],0.461 µM
same,TGI,[37],> 35.6 µM
same,GI50,[38],0.882 µM
same,TGI,[38],4.3 µM
same,GI50,[39],0.922 µM
same,TGI,[39],> 42.7 µM
same,GI50,[40],0.292 µM
same,TGI,[40],0.922 µM
same,GI50,[41],5.23 µM
same,TGI,[41],> 78.7 µM
same,GI50,[42],10.7 µM
same,TGI,[42],> 100 µM
same,GI50,[43],0.539 µM
same,TGI,[43],57.3 µM
same,GI50,[44],38.4 µM
same,TGI,[44],> 100 µM
same,GI50,[45],1.25 µM
same,TGI,[45],> 100 µM
same,GI50,[46],1.02 µM
same,TGI,[46],> 28.3 µM
same,GI50,[47],33.5 µM
same,TGI,[47],> 100 µM
same,GI50,[48],5.74 µM
same,TGI,[48],> 100 µM
same,GI50,[49],1.09 µM
same,TGI,[49],> 100 µM
same,GI50,[50],1.02 µM
same,TGI,[50],> 100 µM
same,GI50,[51],4.43 µM
same,TGI,[51],> 100 µM
same,GI50,[52],0.775 µM
same,TGI,[52],3.96 µM
same,GI50,[53],28.2 µM
same,TGI,[53],> 96.5 µM
same,GI50,[54],0.763 µM
same,TGI,[54],> 21.2 µM
same,GI50,[55],1.61 µM
same,TGI,[55],> 100 µM
same,GI50,[56],1.32 µM
same,TGI,[56],> 93.8 µM
same,GI50,[57],5.57 µM
same,TGI,[57],> 59.6 µM
same,GI50,[58],2.14 µM
same,TGI,[58],> 100 µM
same,GI50,[59],13.4 µM
same,TGI,[59],> 100 µM
